“Also recorded” adds a separate entry of the source.
Columns and labels:
[1] = after intranasal L-DOPA administration, Nedorubov et al; cited from earlier work
[2] = Plasma pharmacokinetics of L-DOPA and dopamine after intranasal dosing; details: rat, 1.2 mg/kg
[3] = Brain levels of L-DOPA and dopamine after intranasal dosing; details: rat, 1.2 mg/kg, 2 hours post-dosing
Excerpt: All brain levels are reported after subtraction of basal levels.

Structure (SMILES): N[C@@H](Cc1ccc(O)c(O)c1)C(=O)O [crystal L-DOPA, levodopa]
- Cmax for L-DOPA in rat brain tissue [1]: 16.94±1.52
- dopamine plasma concentration, single animals with a quantifiable value ([2]; GCPQ-L-DOPA: one rat, t=0.083 hours): 25 to 29 ng/mL
- dopamine plasma concentration ([2]; limit of quantification 25 ng/ml, nearly all samples): below the limit of quantification
- maximum plasma concentration of L-DOPA ([2]; plasma): 53.5 ± 22.7 ng/mL
- time of maximum L-DOPA plasma concentration (Tmax) ([2]; plasma): 15 min
- dopamine levels in the brain above basal levels (in words) [3]: below the LOQ; also recorded: below the level of detection

Source: patent US20250009676A1, “COMPOSITIONS AND METHODS FOR LEVODOPA DELIVERY” (PURDUE PHARMA L.P., priority 2021, published 2025)
